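Compound exposure: 48 hours, 5 concentrations, 96-well plates. Here, GI50 denotes the concentration required for 50% inhibition of growth. TGI is the concentration that stops growth completely.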
Columns and labels:
Assay in all cases: growth of human tumour cells (NCI), 48 h
[1] = system: UACC-257 melanoma
[2] = system: SF-295 CNS
[3] = system: SN12C renal
[4] = system: HCT-15 colon
[5] = system: OVCAR-8 ovarian
[6] = system: COLO 205 colon
[7] = system: HCT-116 colon
[8] = system: RPMI-8226 leukemia
[9] = system: MOLT-4 leukemia
[10] = system: MDA-MB-435

| Compound | TGI [1] [µM] | TGI [2] [µM] | TGI [3] [µM] | TGI [4] [µM] | TGI [5] [µM] | TGI [6] [µM] | TGI [7] [µM] | TGI [8] [µM] | TGI [9] [µM] | GI50 [1] [µM] | GI50 [2] [µM] | GI50 [3] [µM] | GI50 [8] [µM] | GI50 [4] [µM] | GI50 [9] [µM] | GI50 [5] [µM] | GI50 [6] [µM] | GI50 [10] [µM] | TGI [10] [µM] | GI50 [7] [µM] |
| --- | --- | --- | --- | --- | --- | --- | --- | --- | --- | --- | --- | --- | --- | --- | --- | --- | --- | --- | --- | --- |
| O=c1nc(NC(c2ccccc2)(c2ccccc2)c2ccccc2)ccn1CCNCCn1ccc(NC(c2ccccc2)(c2ccccc2)c2ccccc2)nc1=O | 23.3 | 27.3 | 44.1 | > 100 | 38.7 | 35.6 | 73 | – | – | – | – | – | – | – | – | – | – | – | – | – |
| Cc1ccc([N+](=O)[O-])cc1NC(=O)c1cccc([N+](=O)[O-])c1O | 39.5 | 63.3 | > 100 | > 100 | > 100 | 32.2 | – | 68.3 | 73 | – | – | – | – | – | – | – | – | – | – | – |
| COc1cc2c(cc1OC)[C@H]1C(COC(=O)c3ccccc3)CSC(=Nc3ccccc3)N1CC2 (some centres not stated) | > 100 | > 100 | > 100 | > 100 | > 100 | > 100 | > 100 | > 100 | – | – | – | – | – | – | – | – | – | – | – | – |
| CN(C)CCNC(=O)c1cccc2[nH]c(-c3cccnc3)nc12 | 39.9 | > 100 | 54.4 | 79.6 | 44.1 | 32.5 | 42.8 | – | > 100 | – | – | – | – | – | – | – | – | – | – | – |
| COc1cc(/C=N/NC(=O)c2cnn3c2NC(c2ccccc2)C3)ccc1Oc1ccccc1 (configuration not stated) | 15.6 | 2.08 | 4.22 | 3.15 | 12.2 | 6.97 | – | 31.4 | 20.4 | 2.91 | 0.522 | 1.78 | 2.83 | 0.559 | 1.99 | 2.57 | 0.819 | 0.293 | 1.43 | – |
| CC[C@@]1(OC(=O)CN)C(=O)OCc2c1cc1n(c2=O)Cc2cc3c(N)cccc3nc2-1 | 1.5 | 0.0497 | 1.1 | > 100 | 0.153 | 2.66 | – | – | 27.7 | 0.0774 | < 0.01 | < 0.01 | 0.0474 | 0.249 | < 0.01 | < 0.01 | 0.392 | 0.0476 | 0.336 | – |
| Oc1ccccc1C=Nc1nc(SCc2ccccc2)nc2[nH]ncc12 | > 100 | > 100 | > 100 | > 100 | > 100 | > 100 | – | > 100 | > 100 | 52.3 | 52 | > 100 | 30.8 | > 100 | 24.8 | 46.8 | 29.1 | 35.8 | > 100 | – |
| COc1ccc(/C(=N\O)c2cc(C)c(OC)c(C)c2)cc1O | – | > 100 | > 100 | > 100 | 71.6 | – | > 100 | – | > 100 | – | < 0.01 | 0.0484 | – | < 0.01 | 0.052 | 0.0352 | – | < 0.01 | – | < 0.01 |
| C/C=C1/CCC2c3[nH]c4ccccc4c3CCN2C1 (configuration not stated) | > 100 | > 100 | > 100 | – | > 100 | – | > 100 | – | > 100 | – | – | – | – | – | – | – | – | – | – | – |
| CN(C)C=[N+]=[N-] | > 100 | > 100 | > 100 | > 100 | > 100 | > 100 | > 100 | > 100 | > 100 | – | – | – | – | – | – | – | – | – | – | – |
| Cc1c(C(=O)CC(=O)C(=O)Nc2ccc(Cl)cc2)[n+](=O)c2ccccc2n1[O-] | > 100 | > 100 | > 100 | > 100 | > 100 | > 100 | > 100 | > 100 | > 100 | – | – | – | – | – | – | – | – | – | – | – |
| COc1ccc(S(=O)(=O)N/N=C/c2cc(I)cc([N+](=O)[O-])c2O)cc1OC | > 100 | > 100 | > 100 | > 100 | > 100 | > 100 | – | 65.1 | 64.8 | – | – | – | – | – | – | – | – | – | – | – |
| C=C1C(=O)OC2C=C(CCC(C)=O)C(C)C(OC(C)=O)CC12 (configuration not stated) | – | 40.2 | 32.1 | 20.1 | 36 | – | 21.2 | 24 | 34.1 | – | – | – | – | – | – | – | – | – | – | – |
| CCCC/C=C1\CCC(C)(CN(C)C)C1=O (configuration not stated) | > 100 | > 100 | > 100 | > 100 | > 100 | – | > 100 | – | > 100 | – | – | – | – | – | – | – | – | – | – | – |
| N#CCCN(c1ccc(C=Nc2ccccc2Cl)cc1)S(=O)(=O)c1ccccc1 | > 100 | > 100 | > 100 | > 100 | > 100 | > 100 | > 100 | > 100 | > 100 | – | – | – | – | – | – | – | – | – | – | – |
| CN1CC[C@]2(C)c3cc(O)ccc3CC3CCCC1C32C (some centres not stated) | > 100 | > 100 | > 100 | > 100 | > 100 | > 100 | > 100 | > 100 | > 100 | – | – | – | – | – | – | – | – | – | – | – |
| O=C(O)CCC(NC(=O)c1ccccc1)C(=O)O (configuration not stated) | > 100 | > 100 | > 100 | > 100 | > 100 | > 100 | > 100 | > 100 | > 100 | – | – | – | – | – | – | – | – | – | – | – |
| O=C(c1ccccc1)[C@@H]1C[C@H](Sc2ccccc2)c2cc(Cl)ccc2N1 | 37.4 | 92.5 | 33.7 | > 100 | 66.8 | > 100 | 68.4 | > 100 | 60.9 | – | – | – | – | – | – | – | – | – | – | – |
| COc1cc(C(O)C(=O)c2nc3ccc([N+](=O)[O-])cc3[nH]c2=O)ccc1O (configuration not stated) | – | > 100 | > 100 | > 100 | > 100 | > 100 | > 100 | > 100 | > 100 | – | – | – | – | – | – | – | – | – | – | – |
| Cc1cc(NS(=O)(=O)c2ccc(NC(=O)c3ccc(Cl)c4c(Nc5ccc(S(=O)(=O)N=C(N)N)cc5)c5ccccc5nc34)cc2)no1 | > 100 | > 100 | > 100 | > 100 | > 100 | – | > 100 | > 100 | 41.6 | – | – | – | – | – | – | – | – | – | – | – |
| O=C1C2C=CC(C2)C(c2ccc(O)cc2)N1O (configuration not stated) | > 100 | > 100 | > 100 | – | > 100 | > 100 | > 100 | > 100 | > 100 | – | – | – | – | – | – | – | – | – | – | – |
| C[N+]1(C)C/C(=C\c2ccccc2)C(=O)/C(=C/c2ccccc2)C1 | > 100 | > 100 | 73.2 | > 100 | > 100 | > 100 | > 100 | > 100 | > 100 | – | – | – | – | – | – | – | – | – | – | – |

From PubChem BioAssay (NCI)
